What was measured:
[1] = molecular target: T1, acetylcholinesterase (Torpedo marmorata, UniProt P07692); assay: Analysis of pesticides in salad extracts by inhibition of acetylcholinesterase (Table IX); assay type: biochemical; conditions: read-out: % relative activity
T1 construct: from tissue
Excerpt: The analysis of the presence of these inhibitors was done following the protocol described in example 1.

[2] = molecular target: T2, torpedo fish AchE (Torpedo marmorata, UniProt P07692); assay: Analysis of 5 pesticides dissolved in water by inhibition of immobilized AchE (Table VIII); assay type: biochemical; conditions: for times less sensitivity of detection: compared with Naled, Carbofuran, Paraoxon; for sensitivity of the test (in words): in water, gelatin-trehalose protected
T2 construct: from tissue
T2 sequence (P07692 25-590): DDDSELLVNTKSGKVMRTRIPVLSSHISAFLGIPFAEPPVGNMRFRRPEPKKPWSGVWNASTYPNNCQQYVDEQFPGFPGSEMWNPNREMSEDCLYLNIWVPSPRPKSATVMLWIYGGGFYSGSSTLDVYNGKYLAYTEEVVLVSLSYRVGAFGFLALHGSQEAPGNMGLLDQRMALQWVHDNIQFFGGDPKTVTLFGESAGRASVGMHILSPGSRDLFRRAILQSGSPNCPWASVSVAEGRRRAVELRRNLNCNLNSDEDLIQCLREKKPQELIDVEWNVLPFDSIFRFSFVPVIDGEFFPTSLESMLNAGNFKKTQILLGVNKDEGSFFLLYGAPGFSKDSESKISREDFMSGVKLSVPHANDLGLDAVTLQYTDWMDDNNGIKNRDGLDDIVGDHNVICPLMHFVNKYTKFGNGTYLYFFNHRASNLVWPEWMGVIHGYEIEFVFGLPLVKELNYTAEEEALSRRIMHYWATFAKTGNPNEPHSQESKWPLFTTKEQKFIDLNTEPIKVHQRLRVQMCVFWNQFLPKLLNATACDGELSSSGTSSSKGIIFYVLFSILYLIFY

[3] = test system: Horseradish peroxidase; assay: Stability of immobilized peroxidase under gelatin or albumin film containing trehalose, 7 days dry storage (Table II); assay type: physicochemical; conditions: included in the gelifying film
Method: Horseradish peroxidase (0.2 mg/ml) was used to sensitize the wells of microtitration plates, following the method described in example I. After sensitization during one night at 4° C., the wells were covered either with a warm solution (47° C. for the solubilisation, 37° C. for the pouring into the wells) of a 5% gelatin solution or a 5% albumin solution, both containing trehalose in decreasing concentrations starting from a concentration of 8 mg/ml. Triton X100 at a concentration of 0.04% was added to the albumin solution, as a wetting agent. The wells were immediately emptied without rinsing and were thereafter placed at 4° C. and 37° C. duiring 7 days in a dry incubator. The remaining peroxidase activity was measured by addition to the wells of 100 μl of a solution of tetramethylbenzidine and hydrogen peroxide in a citrate-phosphate buffer at pH 5.5. The blue coloration obtained changes to yellow with sulfuric acid (100 μl, 0.5 N), added to stop the enzymatic reaction. The results are given in adsorbances read at 450 nm (table II)

[4] = test system: Acetylcholinesterase, extracted from torpedo fish; assay: Stability of acetylcholinesterase-sensitized wells: residual enzymatic activity after 7 days dry storage (Table I); assay type: physicochemical
Method: After a night of incubation at 4° C., the wells were rinsed and thereafter subjected to the following analysis:
1. Control (nothing added)
2. Rinsing of the wells with buffered water (0.05 M phosphate pH 7,00) containing 15% trehalose.
3. Covering of the wells with buffered water (0.05 M phosphate pH 7,00) containing 5% gelatin (240 bloom), followed by the elimination of the gelatin without rinsing
4. Covering of the wells with buffered water (0.05 M phosphate pH 7,00) containing 5% gelatin (240 bloom) and 15% trehalose, followed by an elimination of the gelatin witout rinsing.
The gelatin was solubilized by heating at 47° C., then cooling down to 37° C. before dispensing in the wells. The wells of the microtitration plates handled in this way were placed at 4° C., 37° C. and 50° C. during 7 days in a dry incubator, then analyzed for the remaining enzymatic activity, according to Ellman's method. Results are given in adsorbances read at 412 nm (table I).

[5] = test system: acetylcholinesterase; assay: Analysis of a drug in spiked serum by inhibition of acetylcholinesterase; assay type: biochemical; conditions: serum of a healthy subject
Method: (§1) The serum of a healthy subject was spiked with increasing concentrations of pyridostygmin and thereafter analysed for the enzymatic activity of acetylcholinesterase, following the protocol already outlined in former examples. One sees in graph 1 that the detection Of the inhibitor of AchE goes down to 1 to 2 μg/ml of this drug in serum.
as §1, with “neostygmin” for “pyridostygmin”, “2” for “1”, “of this” for “Of the”, “50 ng/ml” for “1 to 2 μg/ml”
as §1, with “A” for “The”, “eserin” for “pyridostygmin”, “3” for “1”, “of this” for “Of the”, “100 ng/ml” for “1 to 2 μg/ml”

T1 sequence (P07692 25-590): as above

Row | SMILES | % of Residual activity ([2]; 10 μg/litre in water) [%] | % of Residual activity ([2]; 50 μg/litre in water) [%] | % of Residual activity ([2]; 100 μg/litre in water) [%] | % of Residual activity ([2]; 1000 μg/litre in water) [%] | % of Residual activity ([2]; 01 μg/litre in water) [%] | sensitivity of the test (in words) [2] | also measured
1 | CNC(=O)Oc1cccc2ccccc12 [Carbaryl] | 80 | 61 | 44 | 18 |  |  | activity at 0.01 µg/mL [1]: 80%; activity at 0.05 µg/mL [1]: 61%; activity at 0.1 µg/mL [1]: 51%; activity at 0.5 µg/mL [1]: 26%; activity at 1 µg/mL [1]: 28%; times less sensitivity of detection [2]: 100 times
2 | CNC(=O)Oc1cccc2c1OC(C)(C)C2 [Carbofuran] | 35 | 20 | 18 | 14 | 73 | most sensitive | 
3 | COP(=O)(OC)OC=C(Cl)Cl [Dichlorvos] | 80 | 60 | 49 | 3 |  |  | times less sensitivity of detection [2]: 100 times
4 | COP(=O)(OC)OC(Br)C(Cl)(Cl)Br (centres unmarked) [Naled] | 11 | 0 | 0 | 0 | 73 | most sensitive | activity at 0.001 µg/mL [1]: 90%; activity at 0.01 µg/mL [1]: 63%; activity at 0.05 µg/mL [1]: 20%; activity at 0.1 µg/mL [1]: 9%; activity at 1 µg/mL [1]: 3%
5 | CCOP(=O)(OCC)Oc1ccc([N+](=O)[O-])cc1 [Paraoxon] | 40 | 0 | 0 | 0 | 80 | followed closely | 
6 | OC[C@H]1O[C@H](O[C@H]2O[C@H](CO)[C@@H](O)[C@H](O)[C@H]2O)[C@H](O)[C@@H](O)[C@@H]1O [Trehalose, α-D glucopyranosyl-α-D-glucopyranoside] |  |  |  |  |  |  | concentration of trehalose sufficient and necessary to stabilize the dry enzyme [3]: Two; Residual enzymatic activity after storage of AchE-sensitized wells during 7 days ([4]; 4° C.): 1.88 adsorbances read at 412 nm; Residual enzymatic activity after storage of AchE-sensitized wells during 7 days ([4]; 37° C.): 0.97 adsorbances read at 412 nm; Residual enzymatic activity after storage of AchE-sensitized wells during 7 days ([4]; 50° C.): 0.12 adsorbances read at 412 nm
7 | CNC(=O)Oc1ccc2c(c1)[C@]1(C)CCN(C)[C@@H]1N2C [eserin] |  |  |  |  |  |  | detection of this inhibitor of AchE goes down to [5]: 100 ng/mL
8 | CN(C)C(=O)Oc1cccc([N+](C)(C)C)c1 [neostygmin] |  |  |  |  |  |  | detection of this inhibitor of AchE goes down to [5]: 50 ng/mL

Source: patent publication US5624831A, “Immobilized acetylcholinesterase stabilized by a film of gelatin or albumin containing trehalose” (priority 1994, dated 1997)
